Where “and” joins values, the source holds several entries; their conditions need not be identical. Identical values can stand only once.
Tests used:
[1] = Acute toxicity, oral, rat; type: in vivo; details: in vivo, rat, read-out: DL50
Experimental: (§1) Acute toxicity was determined orally in the Wister rat and in the Swiss mouse of both sexes.
(§2) The animals were kept fasting for at least 12 hours before the tests but whith free access to water. The compound was suspended homogeneously in gum arabic mucilage and was administered, at the set doses, in a volume of 40 ml/kg by means of a gastro-oesophageal probe.
(§3) Each dose was tested on ten animals, of which five were male and five female. The weight of the rats varied from 300 to 350 g for the males and from 220 g to 250 g for the females. The weight of the mice, of both sexes, varied from 28 g to 35 g.
(§4) The observation lasted ten days.

Wister rat = assay: Acute toxicity, oral, rat; type: in vivo
Experimental: as §1, §2, §3, §4

[2] = Acute toxicity, oral, mouse; type: in vivo; details: in vivo, mouse, read-out: DL50
Experimental: as §1, §2, §3, §4

Swiss mouse = assay: Acute toxicity, oral, mouse; type: in vivo
Experimental: as §1, §2, §3, §4

[3] = Chronic (subacute) toxicity, 28 days oral, male rat; type: in vivo; details: rat, in vivo, 4 weeks
Experimental: (§5) These tests were carried out on the male Wistar rat having a body weight which varied from 188 to 228 grams. The animals were randomly divided into groups of ten each, and treated in the following manner:
(§6) Group A--CONTROLS--10% gum arabic, 10 ml/kg/day by oral administration using a gastro-oesophageal probe for 28 consecutive days;
(§7) Group B--CM/1 20 mg/10 ml of 10% gum arabic per kg/day by oral administration using a gastro-oesophageal probe for 28 consecutive days;
(§8) Group C--CM/1 40 mg/10 ml of 10% gum arabic per kg/day by oral administration using a gastro-oesophageal probe for 28 consecutive days.
(§9) In all the groups tested, the body weight was measured daily at the moment of administration, and recorded at regular intervals.
(§10) The general conditions of food and water consumption were noted, and any mortality and the symptomatology were recorded.
(§11) Between the 25th and 27th day of treatment, all the tested groups were kept in suitable metabolic cages (single) in order to collect the urine spontaneously ejected, and thus determine its composition by reactive Bili-Labstix strips of Ames.
(§12) Between the 27th and 29th day of treatment, all the animals, which has fasted for 12 hours but with free access to water, were sacrificed by decapitation (a small animal decapitator of the Amer. Instr. Corp. was used). The following were determined from the blood collected from the trunk:
(§13) azotemia (Dell'Aira, in King E.--Microanalisi nella Biochimica medica. II Pensiero Sci. Ed., ROMA 1951);
(§14) glycemia (Price D. J.--Analyst 92; 198, 1967);
(§15) total bilirubinemia (Jendrassik L. and Grof. P.--Biochem. Z. 297;81, 1938);
(§16) total cholesterolemia (Huan T. C., Chen C. P., Wefler V. and Battey A.--Anal. Chem. 33; 1405, 1961);
(§17) total lipidemia (Zollner N. and Kirsch K.--Z. ges. Exp. Med. 135; 545, 1962)
(§18) SGOT and SGPT transaminase (Reitman S. and Frankel E.--Amer J. Clin. Path. 28;56, 1957);
(§19) total protidemia by the biuret colorimetric method, using lyphilised Hyland serum as standard;
(§20) sodaemia and potassaemia using the photometric method.
(§21) A macroscopic examination was also made of the main organs in order to note any alterations or tumor masses which could indicate neoplasia. Particular attention was given to the examination of the stomach and intestine of the rats treated with the highest dose, in order to determine the degree of local tolerability to repeated administration of CM/1 over 28 days by the gastro-enteric mucosa.
(§22) For this purpose, the stomach and intestine were subjected to macro and microscopic examination, these being sectioned along the greater curvature (stomach) and along the major axis (intestine), washed with tepid physiological solution extended and carefully observed with a magnifying lens, in order to note hyperemia zones with ulcerations or with other trophic alterations of the mucosa.

male Wistar rat = assay: as above; type: in vivo; details: 20 and 40 mg/kg/day oral, 28 days
Experimental: as §5, §6, §7, §8, §9, §10, §11, §12, §13, §14, §15, §16, §17, §18, §19, §20, §21, §22

female Wistar rats = assay: Diuretic and saluretic activity: excretion of an aqueous saline load (TABLE 1); type: in vivo, Wistar rat; details: 5 mg/kg oral
Experimental: Both the CM/1 and the Indapamide were administered orally after being suitably dissolved in the following solvent:
The controls were treated with an equal volume of solvent. The experiments were carried out on animals which had regularly fasted for at least 12 hours, but had free access to water.
The sodium and potassium in the urine were determined by a photometric method.
The effect on the excretion of an aqueous saline load was first checked. 18 female Wistar rats were used divided into three groups, one of 8 and two of 5, and these were treated in the following manner:
GROUP A: CONTROLS 1 ml of solvent made up to 50 ml with 0.9% sodium chloride solution, administered by gastric probe, per kg of body weight (=50 ml/kg in terms of volume);
GROUP B: INDAPAMIDE 5 mg/kg in 1 ml/kg of solvent made up to 50 ml/kg with sodium chloride solution, administered by gastric probe;
GROUP C: CM/1,5 mg/kg using the same method as for the Indapamide.
The rats were placed immediately in individual metabolic cages for collecting the urine during the three hours subsequent to the load. The quantity of urine excreted is given as a percentage of the quantity administered. The sodium and potassium are expressed in mEq/3h.
Values of P less than 0.05 have been considered significant.

[4] = saline load, mean ± standard error, n = 5

Q: For `CC1c2ccccc2CN1NC(=O)c1ccc(Cl)c(S(N)(=O)=O)c1` (centres unmarked) [CM/1, 1-methyl-2-(3'-sulphamyl-4'-chlorobenzamido)-isoindoline], which LD50 at 240 h [1] is on record?
A: Its LD50 at 240 h is greater than 2500 mg/kg.

Q: What about the DL50 (Wister rat; Wister rat, both sexes, 10 days observation) of the same compound?
A: The DL50 was > 2,500 mg/kg.

Q: What about the “deaths / toxic symptomatology” value (Wister rat; rat, individual doses up to 2,500 mg/kg) of the same compound?
A: Its value is “No deaths were observed either in the rat or in the mouse, nor was any particular toxic symptomatology found”.

Q: What about the LD50 at 240 h [2] of the same compound?
A: Its LD50 at 240 h is greater than 2500 mg/kg.

Q: What about the DL50 (Swiss mouse; Swiss mouse, both sexes, 10 days observation) of the same compound?
A: Its DL50 is > 2,500 mg/kg.

Q: What about the “deaths / toxic symptomatology” value (Swiss mouse; mouse, individual doses up to 2,500 mg/kg) of the same compound?
A: Its value is “No deaths were observed either in the rat or in the mouse, nor was any particular toxic symptomatology found”.

Q: And the selectivity ratio at 672 h ([3]; daily doses up to 40 mg/kg oral, read-out: tolerated doses relative to the maximum daily human therapeutic dose)?
A: Its selectivity ratio at 672 h is 560.

Q: What about the NOAEL at 672 h ([3]; oral, read-out: well tolerated daily dose (subacute toxicity)) of the same compound?
A: The NOAEL at 672 h was no less than 40 mg/kg/day.

Q: What about the “alteration in the organs examined or in the gastro-enteric mucosa” value (male Wistar rat) of the same compound?
A: Its value is “No alteration was noted”.

Q: And the “behaviour and food consumption” value (male Wistar rat)?
A: Its value is “Behaviour was normal, as was food consumption”.

Q: What about the “deaths during the 28 days of treatment” value (male Wistar rat) of the same compound?
A: The value was “no deaths were recorded”.

Q: And the sodaemia and potassaemia (male Wistar rat)?
A: Its sodaemia and potassaemia is “slight reduction in the potassaemia and sodaemia”.

Q: What about the symptomatology (male Wistar rat) of the same compound?
A: The symptomatology was “No particular symptomatology was noted”.

Q: And the urine composition (male Wistar rat; collected days 25-27, versus controls)?
A: Its urine composition is “in practice similar for the controls and treated animals”.

Q: And the hematic biochemical constants (male Wistar rat; except sodaemia and potassaemia)?
A: The hematic biochemical constants was “all within the range of normal values for the rat of this stock”.

Q: And the body weight (male Wistar rat; versus controls)?
A: Its body weight is “in practice similar to the data for the controls”.

Q: What about the hemograms (male Wistar rat; versus controls) of the same compound?
A: The hemograms was “all normal, without any significant differences between the controls and treated animals”.

Q: And the water consumption (male Wistar rat; versus controls)?
A: Its water consumption is “slightly greater than the controls”.

Q: What about the “diuretic and saluretic effect, CM/1 compared with Indapamide” value (female Wistar rats) of the same compound?
A: Its value is “considerably greater”.

Q: And the “Urine excretion of load in percent of quantity administered (cumulative excretion), 1 hour” value (female Wistar rats; individual rats)?
A: The value was 16.7% and 14.8% and 11.5% and 9.1% and 12.9%.

Q: What about the “Urine excretion of load in percent of quantity administered (cumulative excretion), 2 hours” value (female Wistar rats; individual rats) of the same compound?
A: The value was 68.3% and 32.2% and 48.5% and 64.5% and 48.7%.

Q: And the “Urine excretion of load in percent of quantity administered (cumulative excretion), 3 hours” value (female Wistar rats; individual rats)?
A: The value was 108.8% and 94.5% and 109.2% and 94.8% and 90.4%.

Q: What about the “Urine excretion of load in percent of quantity administered (cumulative excretion), 1 hour” value (female Wistar rats; mean ± standard error, n = 5) of the same compound?
A: Its value is 13.0 ± 1.31%.

Q: What about the “Urine excretion of load in percent of quantity administered (cumulative excretion), 2 hours” value (female Wistar rats; mean ± standard error, n = 5) of the same compound?
A: Its value is 52.44 ± 6.46%.

Q: What about the “Urine excretion of load in percent of quantity administered (cumulative excretion), 3 hours” value (female Wistar rats; mean ± standard error, n = 5) of the same compound?
A: Its value is 99.54 ± 3.93% and 99.5%.

Q: What about the “diuretic and saluretic effect” value (female Wistar rats; relative to the controls) of the same compound?
A: The value was “significant diuretic and saluretic effect relative to the controls”.

Q: What about the “ratio of the sodium to the potassium excreted during the 3 hours” value (female Wistar rats; saline load) of the same compound?
A: Its value is 5.91.

Q: And the Potassium excretion (female Wistar rats; saline load, individual rats)?
A: The Potassium excretion was 0.297 mEq/3h and 0.310 mEq/3h and 0.276 mEq/3h and 0.280 mEq/3h and 0.284 mEq/3h.

Q: What about the Sodium excretion (female Wistar rats; saline load, individual rats) of the same compound?
A: The Sodium excretion was 1.81 mEg/3h and 1.77 mEg/3h and 1.56 mEg/3h and 1.68 mEg/3h and 1.73 mEg/3h.

Q: And the Potassium excretion (female Wistar rats; [4])?
A: Its Potassium excretion is 0.289 ± 0.062 mEq/3h.

Q: What about the Sodium excretion (female Wistar rats; [4]) of the same compound?
A: The Sodium excretion was 1.71 ± 0.043 mEg/3h.

Q: And the “excreted sodium and potassium” value (female Wistar rats; versus controls)?
A: Its value is “significantly higher than the controls”.

Source: patent publication US4338331A, “Isoindoline derivative and a therapeutic composition thereof” (priority 1979, dated 1982)
